In patent US8148373B2, “Compounds” (AstraZeneca AB, priority 2008, dated 2012):

Columns and labels:
[1] = target: T1, Adrenergic β2 (H292 cells) (Homo sapiens, UniProt P07550); assay: Adrenergic β2 Mediated cAMP Production, single concentration 1 μM; format: cell-based; conditions: percentage of the maximum response generated by 1E-07M formoterol; for activation at 1 µM: NCI-H292, 1 μM compound, read-out: β2 (% effect at 1 μM)
T1 construct: endogenous in cells; host or cells: H292 cells
In short: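 cAMP was quantified by AlphaScreen in lysates of H292 cells and reported as a percentage of the 1E-07M formoterol maximum. Before lysis the cells, seeded the previous day, received rolipram (300 μM final) and then test compound at a final 1 μM in 1% DMSO for 60 min at room temperature.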

[2] = target: T2, human muscarinic acetylcholine M3 receptor (M3-ACh) (Homo sapiens, UniProt P20309); assay: Muscarinic 3 Receptor Binding Assay, % inhibition specific binding at 1 μM; conditions: 1 μM compound, % inhibition specific [3H]-NMS binding
T2 construct: expressed in transfected cells; host or cells: CHO-K1 (Chinese Hamster Ovary) cell membranes
In short: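 Value is % inhibition of specific [3H]N-methyl scopolamine binding (0.1 nM, quarter Kd) by 1 μM compound, using SPA beads precoated with human M3-expressing CHO-K1 membranes. Buffer HEPES pH 7.4 with MgCl2 and 1% DMSO; 16 h at room temperature; 1 μM atropine sets non-specific binding.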

T2 sequence (P20309 whole entry): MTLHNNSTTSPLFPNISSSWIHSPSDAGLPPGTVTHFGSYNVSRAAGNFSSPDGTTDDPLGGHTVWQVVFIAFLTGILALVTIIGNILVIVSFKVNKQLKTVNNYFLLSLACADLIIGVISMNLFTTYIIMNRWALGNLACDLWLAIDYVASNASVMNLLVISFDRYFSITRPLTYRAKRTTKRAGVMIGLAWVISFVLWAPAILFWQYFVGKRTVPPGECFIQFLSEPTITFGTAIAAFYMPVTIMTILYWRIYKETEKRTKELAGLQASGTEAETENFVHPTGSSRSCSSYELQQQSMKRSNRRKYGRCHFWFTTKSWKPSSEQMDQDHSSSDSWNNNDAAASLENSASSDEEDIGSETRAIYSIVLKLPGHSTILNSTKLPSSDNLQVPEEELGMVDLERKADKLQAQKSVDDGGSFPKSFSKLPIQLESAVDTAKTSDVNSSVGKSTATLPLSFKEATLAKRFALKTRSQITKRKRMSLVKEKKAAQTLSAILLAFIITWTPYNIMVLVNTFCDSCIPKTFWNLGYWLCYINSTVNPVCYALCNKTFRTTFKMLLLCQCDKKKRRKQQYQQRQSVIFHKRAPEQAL
T1 sequence (P07550 whole entry): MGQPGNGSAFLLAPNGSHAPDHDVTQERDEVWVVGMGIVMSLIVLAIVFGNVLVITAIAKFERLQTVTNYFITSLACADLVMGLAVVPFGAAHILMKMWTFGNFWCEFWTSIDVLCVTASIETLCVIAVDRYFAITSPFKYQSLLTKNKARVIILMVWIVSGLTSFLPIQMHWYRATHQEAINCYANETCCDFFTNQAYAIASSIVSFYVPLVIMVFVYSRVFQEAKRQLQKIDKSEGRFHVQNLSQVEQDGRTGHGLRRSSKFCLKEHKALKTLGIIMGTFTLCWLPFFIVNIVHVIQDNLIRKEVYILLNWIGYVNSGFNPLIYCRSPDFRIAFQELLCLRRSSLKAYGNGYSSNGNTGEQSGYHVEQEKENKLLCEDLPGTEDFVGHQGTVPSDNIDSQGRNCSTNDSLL

Row | activation at 1 µM [1] | inhibition at 1 µM [2] | β2 (% effect at 1 μM) ([1]; 1 μM compound) | M3 (% inhibition at 1 μM) [2] | SMILES
1 | 93% | 96% |  |  | O=C(CCCc1ccccc1)N1CCOC2(CCN(CCCCCCCCCNC[C@H](O)c3ccc(O)c4[nH]c(=O)sc34)CC2)C1 [Example 188, (R)-4-hydroxy-7-(1-hydroxy-2-(9-(4-(4-phenylbutanoyl)-1-oxa-4,9-diazaspiro[5.5]undecan-9-yl)nonylamino)ethyl)benzo[d]thiazol-2(3H)-one]
2 | 84% | 78% |  |  | Cc1cc(C(=O)N2CCOC3(CCN(CCOc4ccc(CNC[C@H](O)c5ccc(O)c6[nH]c(=O)sc56)cc4)CC3)C2)c(C)s1 [Example 243, (R)-7-(2-(4-(2-(4-(2,5-dimethylthiophene-3-carbonyl)-1-oxa-4,9-diazaspiro[5.5]undecan-9-yl)ethoxy)benzylamino)-1-hydroxyethyl)-4-hydroxy-benzo[d]thiazol-2(3H)-one]
3 | 102% | 13% |  |  | Cc1ccc2[nH]c(C(=O)N3CCOC4(CCN(Cc5cc(F)cc(CCNC[C@H](O)c6ccc(O)c7[nH]c(=O)sc67)c5)CC4)C3)cc2c1 [Example 157, (R)-7-(2-(3-fluoro-5-((4-(5-methyl-1H-indole-2-carbonyl)-1-oxa-4,9-diazaspiro[5.5]undecan-9-yl)methyl)phenethylamino)-1-hydroxyethyl)-4-hydroxybenzo[d]thiazol-2(3H)-one]
4 | 112% | 13% |  |  | O=C(c1c[nH]c2ccccc12)N1CCOC2(CCN(Cc3cc(F)cc(CCNC[C@H](O)c4ccc(O)c5[nH]c(=O)sc45)c3)CC2)C1 [Example 137, (R)-7-(2-(3-((4-(1H-indole-3-carbonyl)-1-oxa-4,9-diazaspiro[5.5]undecan-9-yl)methyl)-5-fluorophenethylamino)-1-hydroxyethyl)-4-hydroxybenzo[d]thiazol-2(3H)-one]
5 | 97% | 78% |  |  | Cc1ccoc1C(=O)N1CCOC2(CCN(Cc3cc(F)cc(CCNC[C@H](O)c4ccc(O)c5[nH]c(=O)sc45)c3)CC2)C1 [Example 127, (R)-7-(2-(3-fluoro-5-((4-(3-methylfuran-2-carbonyl)-1-oxa-4,9-diazaspiro[5.5]undecan-9-yl)methyl)phenethylamino)-1-hydroxyethyl)-4-hydroxybenzo[d]thiazol-2(3H)-one]
6 | 91% | 68% |  |  | Cc1nc(C)c(CC(=O)N2CCOC3(CCN(CCCCCCCCCNC[C@H](O)c4ccc(O)c5[nH]c(=O)sc45)CC3)C2)s1 [Example 211, (R)-7-(2-(9-(4-(2-(2,4-dimethylthiazol-5-yl)acetyl)-1-oxa-4,9-diazaspiro[5.5]undecan-9-yl)nonylamino)-1-hydroxyethyl)-4-hydroxybenzo[d]thiazol-2(3H)-one]
7 | 76% | 90% |  |  | Cc1ccc(C(=O)N2CCOC3(CCN(CCOc4ccc(CNC[C@H](O)c5ccc(O)c6[nH]c(=O)sc56)cc4)CC3)C2)o1 [Example 239, (R)-4-hydroxy-7-(1-hydroxy-2-(4-(2-(4-(5-methylfuran-2-carbonyl)-1-oxa-4,9-diazaspiro[5.5]undecan-9-yl)ethoxy)benzylamino)ethyl) benzo[d]thiazol-2(3H)-one]
8 | 89% | 41% |  |  | O=C(COCCc1ccccc1)N1CCOC2(CCN(Cc3cc(F)cc(CCNC[C@H](O)c4ccc(O)c5[nH]c(=O)sc45)c3)CC2)C1 [Example 174, (R)-7-(2-(3-fluoro-5-((4-(2-phenethoxyacetyl)-1-oxa-4,9-diazaspiro[5.5]undecan-9-yl)methyl)phenethylamino)-1-hydroxyethyl)-4-hydroxybenzo[d]thiazol-2(3H)-one]
9 | 85% | 11% |  |  | Cc1ccnn1CC(=O)N1CCOC2(CCN(CCOc3ccc(CNC[C@H](O)c4ccc(O)c5[nH]c(=O)sc45)cc3)CC2)C1 [Example 241, (R)-4-hydroxy-7-(1-hydroxy-2-(4-(2-(4-(2-(5-methyl-1H-pyrazol-1-yl)acetyl)-1-oxa-4,9-diazaspiro[5.5]undecan-9-yl)ethoxy)benzylamino)ethyl) benzo[d]thiazol-2(3H)-one]
10 | 78% | 97% |  |  | Cc1occc1C(=O)N1CCOC2(CCN(CCCCCCCCCNC[C@H](O)c3ccc(O)c4[nH]c(=O)sc34)CC2)C1 [Example 197, (R)-4-hydroxy-7-(1-hydroxy-2-(9-(4-(2-methylfuran-3-carbonyl)-1-oxa-4,9-diazaspiro[5.5]undecan-9-yl)nonylamino)ethyl)benzo[d]thiazol-2(3H)-one]
11 | 73% | 30% |  |  | Cc1cc(C(=O)N2CCOC3(CCN(CCOc4ccc(CNC[C@H](O)c5ccc(O)c6[nH]c(=O)sc56)cc4)CC3)C2)oc1C [Example 236, (R)-7-(2-(4-(2-(4-(4,5-dimethylfuran-2-carbonyl)-1-oxa-4,9-diazaspiro[5.5]undecan-9-yl)ethoxy)benzylamino)-1-hydroxyethyl)-4-hydroxy-benzo[d]thiazol-2(3H)-one]
12 | 89% | 94% |  |  | Cc1nc2cc(C(=O)N3CCOC4(CCN(CCCCCCCCCNC[C@H](O)c5ccc(O)c6[nH]c(=O)sc56)CC4)C3)ccc2s1 [Example 215, (R)-4-hydroxy-7-(1-hydroxy-2-(9-(4-(2-methylbenzo[d]thiazole-5-carbonyl)-1-oxa-4,9-diazaspiro[5.5]undecan-9-yl)nonylamino)ethyl)benzo[d]thiazol-2(3H)-one]
13 | 77% | 91% |  |  | O=C(c1ccc2occc2c1)N1CCOC2(CCN(CCOc3ccc(CNC[C@H](O)c4ccc(O)c5[nH]c(=O)sc45)cc3)CC2)C1 [Example 250, (R)-7-(2-(4-(2-(4-(benzofuran-5-carbonyl)-1-oxa-4,9-diazaspiro[5.5]undecan-9-yl)ethoxy)benzylamino)-1-hydroxyethyl)-4-hydroxybenzo[d]thiazol-2(3H)-one]
14 | 90% | 20% |  |  | O=C(N1CCOC2(CCN(Cc3cc(F)cc(CCNC[C@H](O)c4ccc(O)c5[nH]c(=O)sc45)c3)CC2)C1)C1(c2ccccc2)CCCC1 [Example 129, (R)-7-(2-(3-fluoro-5-((4-(1-phenylcyclopentanecarbonyl)-1-oxa-4,9-diazaspiro[5.5]undecan-9-yl)methyl)phenethylamino)-1-hydroxyethyl)-4-hydroxybenzo[d]thiazol-2(3H)-one]
15 | 92% | 85% |  |  | O=C(c1cc2ccccc2s1)N1CCOC2(CCN(CCCCCCCCCNC[C@H](O)c3ccc(O)c4[nH]c(=O)sc34)CC2)C1 [Example 194, (R)-7-(2-(9-(4-(benzo[b]thiophene-2-carbonyl)-1-oxa-4,9-diazaspiro[5.5]undecan-9-yl)nonylamino)-1-hydroxyethyl)-4-hydroxybenzo[d]thiazol-2(3H)-one]
16 | 100% | 91% |  |  | Cc1cc(C(=O)N2CCOC3(CCN(Cc4cc(F)cc(CCNC[C@H](O)c5ccc(O)c6[nH]c(=O)sc56)c4)CC3)C2)c(C)s1 [Example 150, (R)-7-(2-(3-((4-(2,5-dimethylthiophene-3-carbonyl)-1-oxa-4,9-diazaspiro[5.5]undecan-9-yl)methyl)-5-fluorophenethylamino)-1-hydroxyethyl)-4-hydroxybenzo[d]thiazol-2(3H)-one]
17 |  |  | 55% | 96% | O=C(c1csc(C(F)(F)F)n1)N1CCOC2(CCN(CCOc3ccc(CNC[C@H](O)c4ccc(O)c5[nH]c(=O)sc45)cc3)CC2)C1 [Example 258]
18 | 110% | 56% |  |  | Cc1cccc2nc(C(=O)N3CCOC4(CCN(Cc5cc(F)cc(CCNC[C@H](O)c6ccc(O)c7[nH]c(=O)sc67)c5)CC4)C3)cn12 [Example 133, (R)-7-(2-(3-fluoro-5-((4-(5-methylimidazo[1,2-a]pyridine-2-carbonyl)-1-oxa-4,9-diazaspiro[5.5]undecan-9-yl)methyl)phenethylamino)-1-hydroxyethyl)-4-hydroxybenzo[d]thiazol-2(3H)-one]
19 | 92% | 85% |  |  | O=C(c1ccc2ncsc2c1)N1CCOC2(CCN(Cc3cc(F)cc(CCNC[C@H](O)c4ccc(O)c5[nH]c(=O)sc45)c3)CC2)C1 [Example 132, (R)-7-(2-(3-((4-(benzo[d]thiazole-6-carbonyl)-1-oxa-4,9-diazaspiro[5.5]undecan-9-yl)methyl)-5-fluorophenethylamino)-1-hydroxyethyl)-4-hydroxybenzo[d]thiazol-2(3H)-one]
20 | 88% | 10% |  |  | Cc1nc(C)c(CC(=O)N2CCOC3(CCN(CCOc4ccc(CNC[C@H](O)c5ccc(O)c6[nH]c(=O)sc56)cc4)CC3)C2)s1 [Example 252, (R)-7-(2-(4-(2-(4-(2-(2,4-dimethylthiazol-5-yl)acetyl)-1-oxa-4,9-diazaspiro[5.5]undecan-9-yl)ethoxy)benzylamino)-1-hydroxyethyl)-4-hydroxy-benzo[d]thiazol-2(3H)-one]
21 | 95% | 25% |  |  | Cc1nonc1CC(=O)N1CCOC2(CCN(Cc3cc(F)cc(CCNC[C@H](O)c4ccc(O)c5[nH]c(=O)sc45)c3)CC2)C1 [Example 163, (R)-7-(2-(3-fluoro-5-((4-(2-(4-methyl-1,2,5-oxadiazol-3-yl)acetyl)-1-oxa-4,9-diazaspiro[5.5]undecan-9-yl)methyl)phenethylamino)-1-hydroxyethyl)-4-hydroxybenzo[d]thiazol-2(3H)-one]
